# Key:
# leukocytes = test: Leukocyte adherence and emigration after ischemia reperfusion (mesenteric venules); type: in vivo, rat; conditions: 20 min ischemia, 10 and 30 min reperfusion; 100 μM; FIG. 4B
# Experimental: (§1) Male Sprague-Dawley rats weighing 200-250 g apiece were maintained on a purified laboratory diet and fasted for 24 hours prior to each experiment. The animals were initially anesthetized with pentobarbital (65 mg/kg body weight) and then a tracheotomy was performed to facilitate breathing during subsequent experimentation. The right carotid artery was cannulated and system arterial pressure was measured with a Statham P23A pressure transducer (Oxnard, Calif.) connected to the carotid artery cannula. Systemic blood pressure and heart rate were continuously recorder with a Grass physiologic recorded (Grass Instruments).
# (§2) Rats were placed in a supine position on an adjustable plexiglass microscope stage and the mesentery was prepared for microscopic observation as described previously (Asako et al., Gastroenterology, 103, 146-152 (1992); Kurose et al., Circ. Res., in press (1993)). Briefly, the mesentery was draped over a non-fluorescent coverslip that allowed for observation of a 2 cm^2 segment of tissue. The exposed bowel wall was covered with Saran Wrap (Dow Chemical Co.) and the mesentery was superfused with bicarbonate-buffered saline (pH 7.4, 37° C.) that was bubbled with a mixture of 5% CO2 and […].
# (§3) An inverted microscope (TMD-25, Diaphoto, Nikon, Tokyo, Japan) with a 40x objective lens (Fluor, Nikon) was used to observe the mesenteric microcirculation. The mesentery was transilluminated with a 12 V-100 W direct current-stabilized light source. A video camera (VK-C150, Hitachi, Ibaragi, Japan) mounted on the microscope projected the image onto a color monitor (PVM-2030, Sony, Tokyo, Japan) and the images were recorded using a videocassette record (NV8950, Panasonic, Tokyo, Japan). A video time-date generator (WJ810, Panasonic) projected the time, date and stopwatch function onto the monitor.
# (§4) Single unbranched venules with diameters ranging between 25 and 35 μm and length greater than 150 μm were selected for study. Venular diameter (DV) was measured either on- or off-line using a video caliper (Microcirculation Research Institute, Texas A&M University, College Station, Tex.). Red blood cell centerline velocity (VRBC) was measured in venules using an optical Dopper velocimeter (Microcirculation Research Institute, Texas A&M University, College Station, Tex.). The velocimeter was calibrated against a rotating glass disk coated with red blood cells. Venular blood flow was calculated from the product of mean red blood cell velocity (Vmean =centerline velocity/1.6; Davis, Microvasc. Res., 34, 223-230 (1987)) and microvascular cross-sectional area, assuming cylindrical geometry. Wall shear rate (γ) was calculated based on the Newtonian definition γ=8(Vmean /D).
# The number of adherent leukocytes was determined off-line during playback of videotape images. A leukocyte was considered to be adherent to venular endothelium if it remained stationary for a period equal to or greater than 30 seconds (Granger et al., Am. J. Physiol., 257, G683-G688 (1989)). Adherent cells were expressed as the number per 100 μm length of venule. The number of emigrated leukocytes was also determined off-line during playback of videotape images. Any interstitial leukocytes present in the mesentery at the onset of the experiment were subtracted from the total number of leukocytes that accumulated during the course of the experiment. Leukocyte emigration was expressed as the number per field of view surrounding the venule. Platelet-leukocyte aggregates, which were visible within postcapillary venules, were quantitated and expressed as the number of aggregates crossing a fixed point within the venule over a 5 min period. Mast cells in the microvascular beds of the rat mesenteries were visualized by using 0.1% toluidine blue. The number of normal and degranulated mast cells was determined and the percentage of degranulated mast cells was calculated.
# mast cells = test: Degranulation of microvascular mast cells after ischemia reperfusion; type: in vivo, rat; conditions: 20 min ischemia, 30 min reperfusion; 100 μM; FIG. 7
# Experimental: as §1, §2
# (§5) An inverted microscope (TMD-25, Diaphoto, Nikon, Tokyo, Japan) with a 40x objective lens (Fluor, Nikon) was used to observe the mesenteric microcirculation. […] A video camera (VK-C150, Hitachi, Ibaragi, Japan) mounted on the microscope projected the image onto a color monitor (PVM-2030, Sony, Tokyo, Japan) and the images were recorded using a videocassette record (NV8950, Panasonic, Tokyo, Japan). […]
# as §4, with “The velocimeter was calibrated against a rotating glass disk coated with red blood cells.” left out
# The number of adherent leukocytes was determined off-line during playback of videotape images. […] Adherent cells were expressed as the number per 100 μm length of venule. The number of emigrated leukocytes was also determined off-line during playback of videotape images. […] Leukocyte emigration was expressed as the number per field of view surrounding the venule. […]
# rat mesenteric venules = test: Venular diameter, RBC velocity and wall shear rate after ischemia reperfusion; type: in vivo; conditions: 100 μM in superfusate
# Experimental: as §1, §2, §3, §4
# After all parameters measured on-line were in a steady state, images from the mesenteric preparation were recorded on videotape for 10 min. […] The mesentery was made ischemic for zero (sham ischemia) or 20 min. After the ischemic period, the ligation was gently removed. In some experiments, either sodium nitroprusside (SNP, 100 μM, Sigma Chemical), spermine-NO (SpNO, 100 μM), SIN-1 (100 μM), spermine (SP, 100 μM, Sigma Chemical), or NG-nitro-L-arginine methyl ester (L-NAME, 100 μM, Sigma Chemical) was added to the superfusate and the same protocol was employed. Spermine-NO and SIN-1, which are NO donors, were obtained from the National Institutes of Health, Bethesda, Md. […]
# mesenteric venules = test: Albumin leakage across mesenteric venules after ischemia reperfusion; type: in vivo, rat; conditions: 10 min and 30 min after reperfusion; 100 μM; FIG. 4C
# Experimental: as §1, §2, §3
# as §4, with “The velocimeter was calibrated against a rotating glass disk coated with red blood cells.” left out
# After all parameters measured on-line were in a steady state, images from the mesenteric preparation were recorded on videotape for 10 min. […]
# microvasculature [1] = test: Capillary pressure and vascular resistance in cat small intestine transplant; type: in vivo, cats; conditions: FIG. 13
# intestinal mucosa = test: Intestinal blood to lumen 51Cr-EDTA clearance (mucosal permeability) in cat small intestine transplant; type: in vivo, cats
# microvasculature [2] = test: Lymph flow and lymph protein clearance in cat small intestine transplant; type: in vivo, cats
# [3] = tested on: platelet-leukocyte aggregates; test: Platelet-leukocyte aggregates after ischemia reperfusion; type: in vivo, rat; conditions: 20 min ischemia, 30 min reperfusion; 100 μM; FIG. 6
# Experimental: as §1, with “Instruments). […]” for “Instruments).”
# as §5
# Single unbranched venules with diameters ranging between 25 and 35 μm and length greater than 150 μm were selected for study. Venular diameter (DV) was measured either on- or off-line using a video caliper (Microcirculation Research Institute, Texas A&M University, College Station, Tex.). […] Wall shear rate (γ) was calculated based on the Newtonian definition γ=8(Vmean /D). […]
# [4] = NO release rate / half-life; type: physicochemical; conditions: vs DEA/NO
# [5] = tested on: Chinese hamster V79 lung fibroblasts; test: V79 clonogenic survival, hypoxanthine/xanthine oxidase (HX/XO) cytotoxicity; conditions: 1 mM
# Experimental: Chinese hamster V79 lung fibroblasts were cultured in F12 medium supplemented with 10% fetal calf serum and antibiotics. Cell survival was assessed by clonogenic assay with 85-95% plating efficiency. Stock cultures of exponentially growing cells were trypsinized, rinsed, and plated (7×10^5 cells/dish) into a number of 100 cm^2 petri dishes and incubated 16 hr at 37° C. prior to experimental protocols.
# It has been shown that exposure of V79 cells to hydrogen peroxide results in dose-dependent cytotoxicity (Mitchell et al., supra).
# HX and XO were purchased from Boehringer Co. (Indianapolis, Ind.). Nitrite, diethylamine, sulfinamide, diethylenetriaminepentaacetic acid (DETAPAC) and N-(1-naphthyl)ethylenediaminedihydrogenchloride (NEDD) were purchased from Aldrich (Milwaukee, Wis.). Cytosine-β-D-arabinofuranoside and ferricytochrome c were purchased from Sigma (St. Louis, Mo.). DEA/NO and SPER/NO were synthesized as previously described (Maragos et al., (1991), supra).
# Exponentially growing cultures of Chinese hamster V79 fibroblasts were exposed to either HX/XO (final concentration of HX was 0.5 mM; 0.08 units/ml XO were used) for various amounts of time (FIG. 1A) or to various concentrations of hydrogen peroxide for one hour (FIG. 1B). […] Additionally, 1 mM DEA/NO was added to medium in the absence of cells, incubated at 37° C. for 1 hr or 16 hrs, and then added just prior to the addition of hydrogen peroxide to evaluate the effects of DEA/NO which had released NO. After treatment, cell monolayers were rinsed twice with phosphate-buffered saline (PBS), trypsinized, counted and plated in triplicate for macroscopic colony formation. Each dose determination was plated in triplicate and experiments were repeated a minimum of two times. Plates were incubated for 7 days, after which colonies were fixed with methanol/acetic acid (3:1), stained with crystal violet, and counted. Colonies containing more than 50 cells were scored.
# small intestine = test: Water absorption in cat small intestine transplant; type: in vivo, cats; conditions: during 120 min of reperfusion; 0.1 mmol; vs untreated; FIG. 10
compound,measurement,setting,value
"NCCCNCCCCN(CCCN)/[N+]([O-])=N/O [SpNO, spermine-NO]",reduction of number of emigrated leukocytes,leukocytes,64-71%
same,degranulation of microvascular mast cells,mast cells,significantly inhibited
same,reversal of decrease in RBC velocity after reperfusion,rat mesenteric venules; in words,reversed the decreases
same,reversal of decrease in wall shear rate after reperfusion,rat mesenteric venules; in words,reversed the decreases
same,RBC velocity,rat mesenteric venules; 30 min after reperfusion,3.06 ± 0.28 mm/sec
same,Venular diameter,rat mesenteric venules; 30 min after reperfusion,31.8 ± 2.1 μm
same,Wall Shear Rate,rat mesenteric venules; 30 min after reperfusion,480 ± 27 s⁻¹
same,attenuation of albumin leakage,mesenteric venules,70%
same,capillary pressure,microvasculature [1],Significant elevation
same,mucosal permeability (51Cr-EDTA clearance),"intestinal mucosa; 6-hr hypothermic ischemia, 120 min reperfusion, FIG. 9",decreased
same,51Cr-EDTA clearance,"intestinal mucosa; at 75 and 90 min, 0.1 mmol luminal perfusate",statistically significant decrease
same,lymph flow,microvasculature [2]; FIG. 11,Increased lymph flow
same,lymph protein clearance,microvasculature [2]; FIG. 12,increased lymph protein clearance
same,platelet-leukocyte aggregate formation,[3],reduced
same,"NO release, times slower than DEA/NO",[4],40 times
same,protection against HX/XO-induced cell killing,[5],protected V79 cells against HX/XO induced cytotoxicity but to a lesser extent than DEA/NO
same,water absorption,small intestine,increased significantly

# — patent publication US5789447A, “Nitric oxide releasing compounds as protective agents in ischemia reperfusion injury” (priority 1995, dated 1998)
